Measured values: patent US5328909A, “Cyclopropenone derivatives” (Mitsubishi Kasei Corporation, priority 1991, dated 1994)
Structures can show the parent of a compound that is named as a salt. Where two headings read alike, the source gives them in different places.

Target: T1, m-calpain (Rattus norvegicus, UniProt Q07009)
T1 construct: m-calpain was purified from rat brain; from tissue; host or cells: rat brain
T1 sequence (Q07009 20-700 limits assumed): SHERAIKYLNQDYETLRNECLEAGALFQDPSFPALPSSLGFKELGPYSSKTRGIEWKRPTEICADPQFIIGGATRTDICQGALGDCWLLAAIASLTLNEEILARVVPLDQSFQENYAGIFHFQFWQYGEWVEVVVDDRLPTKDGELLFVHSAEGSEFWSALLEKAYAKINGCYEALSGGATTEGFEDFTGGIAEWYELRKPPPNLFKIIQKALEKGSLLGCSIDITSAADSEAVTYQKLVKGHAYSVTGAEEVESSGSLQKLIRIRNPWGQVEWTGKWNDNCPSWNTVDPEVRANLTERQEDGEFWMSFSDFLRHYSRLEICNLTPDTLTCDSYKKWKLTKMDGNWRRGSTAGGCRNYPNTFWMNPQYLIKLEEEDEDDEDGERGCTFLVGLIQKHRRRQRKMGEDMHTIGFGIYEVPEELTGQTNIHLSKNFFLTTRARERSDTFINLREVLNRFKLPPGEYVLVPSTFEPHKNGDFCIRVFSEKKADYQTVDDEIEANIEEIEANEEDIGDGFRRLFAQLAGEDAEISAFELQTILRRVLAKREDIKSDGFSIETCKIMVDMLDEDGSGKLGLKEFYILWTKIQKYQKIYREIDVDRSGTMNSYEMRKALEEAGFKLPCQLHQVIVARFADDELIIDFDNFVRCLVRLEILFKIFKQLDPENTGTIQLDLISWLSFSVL
T1 sequence (Q64537 1-270 partner): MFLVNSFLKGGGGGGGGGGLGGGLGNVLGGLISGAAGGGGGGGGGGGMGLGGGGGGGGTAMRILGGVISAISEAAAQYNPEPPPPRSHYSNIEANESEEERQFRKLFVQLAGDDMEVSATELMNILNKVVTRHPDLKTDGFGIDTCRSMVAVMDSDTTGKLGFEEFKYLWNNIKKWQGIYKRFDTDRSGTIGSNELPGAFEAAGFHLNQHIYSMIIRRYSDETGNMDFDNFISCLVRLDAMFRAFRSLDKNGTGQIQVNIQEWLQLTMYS
Assay: Thiol protease inhibitory activity against m-calpain purified from rat brain
Type: biochemical
Method: Inhibitory activity against papain (P-3125, Sigma) and cathepsin B (C-6286, Sigma) was assayed according to the method described in a literature [Biochemical Journal, 201, 189 (1982)]. Capthesin L was purified from rat kidney according to the method in a literature [Journal of Biochemistry, 100, 35 (1986)], and the inhibitory activity against it was assayed in the same manner as described in the above literature for cathepsin B. Further, m-calpain was purified from rat brain according to a known method [Journal of Biological Chemistry, 254, p.3210 (1984)] and the inhibitory activity against it was assayed by a method described in a literature [Journal of Biological Chemistry, 259, 12489 (1984)]. The results are showing in Tables 3 and 4. It is evident from Tables 3 and 4 that the compounds in the present invention have a potent inhibitory activity against thiol proteases such as papain, cathepsin B, cathepsin L, m-calpain or the like.

[1] = Table 4, rat brain enzyme, read-out: Inhibitory activity against m-calpain IC50

Compound | IC50 [1] | IC50
CC(C)C[C@H](NC(=O)CCc1ccccc1)C(=O)N[C@@H](C(C)C)[C@@H](O)c1c(-c2ccccc2)c1=O [42 (No. 133), 2-[(1S, 2S)-1-hydroxy-3-methyl-2-{(S)-4-methyl-2-(3-phenylpropionylamino)valerylamino}butyl]-3-phenylcyclopropenone] | 1500 nM | 
CC(C)C[C@H](NC(=O)c1cccnc1)C(=O)N[C@@H](C(C)C)[C@@H](O)c1c(-c2ccccc2)c1=O [71 (No. 209), 2-[(1S, 2S)-1-hydroxy-3-methyl-2-((S)-4-methyl-2-nicotinoylaminovalerylamino)butyl]-3-phenylcyclopropenone] | 1300 nM | 
CC(C)C[C@H](NS(=O)(=O)c1ccc(F)cc1)C(=O)N[C@@H](C(C)C)[C@@H](O)c1c(-c2ccccc2)c1=O [83 (No. 245), 2-[(1S, 2S)-2-{(S)-2-(4-fluorophenylsulfonylamino)-4-methylvalerylamino}-1-hydroxy-3-methylbutyl]-3-phenylcyclopropenone] | 3000 nM | 
CC(C)C[C@H](NC(=O)Oc1ccccc1)C(=O)N[C@@H](C(C)C)[C@@H](O)c1c(-c2ccccc2)c1=O [33 (No. 102), 2-[(1S, 2S)-1-hydroxy-3-methyl-2-((S)-4-methyl-2-phenoxycarbonylamino)valerylamino]-3-phenylcyclopropenone] |  | 840 nM
CC(C)C[C@H](NC(=O)OCc1ccccc1)C(=O)N[C@@H](Cc1ccccc1)C(O)c1cc1=O (stereo partly drawn) [9 (No. 26), 2-[(2S)-2-((S)-2-benzyloxycarbonylamino-4-methylvalerylamino)-1-hydroxy-3-phenylpropyl]cyclopropenone] | 5000 nM | 
Cc1ccc(S(=O)(=O)N[C@@H](CC(C)C)C(=O)N[C@@H](C(C)C)[C@@H](O)c2c(-c3ccccc3)c2=O)cc1 [86 (No. 251), 2-[(1S, 2S)-1-hydroxy-3-methyl-2-{(S)-4-methyl-2-(4-trisulfonylamino)valerylamino}butyl]-3-phenylcyclopropenone] | 750 nM | 
CC(C)C[C@H](NC(=O)c1ccncc1)C(=O)N[C@@H](C(C)C)[C@@H](O)c1c(-c2ccccc2)c1=O [72 (No. 213), 2-[(1S, 2S)-1-hydroxy-2-((S)-2-isonicotinoylamino-4-methylvalerylamino)-3-methylbutyl]-3-phenylcyclopropenone] | 400 nM | 
CC(C)C[C@H](NS(=O)(=O)c1ccccc1Cl)C(=O)N[C@@H](C(C)C)[C@@H](O)c1c(-c2ccccc2)c1=O [84 (No. 246), 2-[(1S, 2S)-2-{(S)-2-(2-chlorophenylsulfonylamino)-4-methylvalerylamino}-1-hydroxy-3-methylbutyl]-3-phenylcyclopropenone] | 850 nM | 
CC(C)C[C@H](NC(=O)CCS(=O)(=O)c1ccccc1)C(=O)N[C@@H](C(C)C)[C@@H](O)c1c(-c2ccccc2)c1=O [57 (No. 170)] | 3100 nM | 
CC(C)C[C@H](NC(=O)CCCc1ccccc1)C(=O)N[C@@H](C(C)C)[C@@H](O)c1c(-c2ccccc2)c1=O [43 (No. 134), 2-[(1S, 2S)-1-hydroxy-3-methyl-2-{(S)-4-methyl-2-(4-phenylbutyrylamino)valerylamino}butyl]-3-phenylcyclopropenone] | 1700 nM | 
CC(C)C[C@H](NC(=O)OCc1ccccn1)C(=O)N[C@@H](C(C)C)[C@@H](O)c1c(-c2ccccc2)c1=O [29 (No. 97), 2-[(1s, 2S)-1-hydroxy-3-methyl-2-{(S)-4-methyl-2-(2-pyridylmethoxycarbonylamino)valerylamino}butyl]-3-phenylcyclopropenone hydrochloride] | 1700 nM | 

Continued by falling IC50 [1], values first:

IC50 [1] | Compound | IC50
4300 nM | CCCC[C@H](NC(=O)[C@H](CC(C)C)NC(=O)OCc1ccccc1)C(O)c1c(-c2ccc(F)cc2)c1=O (stereo partly drawn) [112 (No. 319), 2[(2S)-2-((S)-2-benzyloxycarbonylamino-4-methylvalerylamino)-1-hydroxyhexyl]-3-(4-fluorophenyl)cyclopropenone] | 
3300 nM | CC(C)C[C@H](NC(=O)NCc1ccccc1)C(=O)N[C@@H](C(C)C)[C@@H](O)c1c(-c2ccccc2)c1=O [75 (No. 225), 2-[(1S, 2S)-2-{(S)-2-(3-benzylureido)-4-methylvalerylamino}-1-hydroxy-3-methylbutyl]-3-phenylcyclopropenone] | 
3000 nM | CC(=O)CCC(=O)N[C@@H](CC(C)C)C(=O)N[C@@H](C(C)C)[C@@H](O)c1c(-c2ccccc2)c1=O [44 (No. 137), 2-[(1S, 2S)-1-hydroxy-3-methyl-2-(S)-4-methyl-2-(4-oxovalerylamino)valerylamino]-3-phenylcyclopropenone] | 
1800 nM | COC(=O)c1ccc(C(=O)N[C@@H](CC(C)C)C(=O)N[C@@H](C(C)C)[C@@H](O)c2c(-c3ccccc3)c2=O)cc1 [65 (No. 191), 2-[(1S, 2S)-1-hydroxy-2-{(S)-2-(4-methoxycarbonylbenzoylamino)-4-methylvalerylamino}-3-methylbutyl]-3-phenylcyclopropenone] | 
1600 nM | CC(C)C[C@H](NC(=O)c1c(F)cccc1F)C(=O)N[C@@H](C(C)C)[C@@H](O)c1c(-c2ccccc2)c1=O [59 (No. 175), 2-[(1S, 2S)-2-{(S)-2-(2,6-difluorobenzoylamino)-4-methylvalerylamino}-1-hydroxy-3-methylbutyl]-3-phenylcyclopropenone] | 
1500 nM | CC(C)C[C@H](NC(=O)OCC1CCCCC1)C(=O)N[C@@H](C(C)C)[C@@H](O)c1c(-c2ccc(F)cc2)c1=O [105 (No. 311), 2-[(1S, 2S)-2-((S)-2-cyclohexylmethoxycarbonylamino-4-methylvalerylamino)-1-hydroxy-3-methylbutyl]-3-(4-fluorophenyl)cyclopropenone] | 
1400 nM | CC(C)C[C@H](NC(=O)Cc1ccccc1)C(=O)N[C@@H](C(C)C)[C@@H](O)c1c(-c2ccccc2)c1=O [41 (No. 132), 2-[(1S, 2S)-1-hydroxy-3-methyl-2-((S)-4-methyl-2-phenylacetylaminovalerylamino)butyl]-3-phenylcyclopropenone] | 
1400 nM | CC(C)C[C@H](NC(=O)c1ccnc(Cl)c1)C(=O)N[C@@H](C(C)C)[C@@H](O)c1c(-c2ccccc2)c1=O [73 (No. 216), 2-[(1s, 2S)-2-{(S)-2-(2-chloroisonicotinoylamino)-4-methylvalerylamino}-1-hydroxy-3-methylbutyl]-3-phenylcyclopropenone] | 
840 nM | CC(C)C[C@H](NC(=O)OCC1CCCCC1)C(=O)N[C@@H](CC(C)C)C(=O)N[C@@H](C(C)C)[C@@H](O)c1c(-c2ccccc2)c1=O [118 (No. 467), 2-[(1S, 2S)-2-{(S)-2-((S)-2-cyclohexylmethoxycarbonylamino-4-methylvalerylamino)-4-methylvalerylamino}-1-hydroxy-3-methylbutyl]-3-phenylcyclopropenone] | 
800 nM | CC(C)C[C@H](NC(=O)CCOc1ccccc1)C(=O)N[C@@H](C(C)C)[C@@H](O)c1c(-c2ccccc2)c1=O [55 (No. 167), 2-[(1S, 2S)-1-hydroxy-3-methyl-2-{(S)-4-methyl-2-(3-phenoxypropionylamino)valerylamino}butyl]-3-phenylcyclopropenone] | 
650 nM | CC(C)C[C@H](NS(=O)(=O)c1cccc2ccccc12)C(=O)N[C@@H](C(C)C)[C@@H](O)c1c(-c2ccccc2)c1=O [88 (No. 259), 2-[(1S, 2S)-1-hydroxy-3-methyl-2-{(S)-4-methyl-2-(1-naphtylsulfonylamino)valerylamino}butyl]-3-phenylcyclopropenone] | 
460 nM | CC(C)C[C@H](NS(=O)(=O)c1ccc2ccccc2c1)C(=O)N[C@@H](C(C)C)[C@@H](O)c1c(-c2ccccc2)c1=O [89 (No. 260), 2-[(1S, 2S)-1-hydroxy-3-methyl-2-{(S)-4-methyl-2-(2-naphtylsulfonylamino)valerylamino}butyl]-3-phenylcyclopropenone] | 
350 nM | CC(C)C[C@H](NS(=O)(=O)c1ccccc1)C(=O)N[C@@H](C(C)C)[C@@H](O)c1c(-c2ccccc2)c1=O [80 (No. 239), 2-[(1S, 2S)-1-hydroxy-3-methyl-2-((S)-4-methyl-2-phenylsulfonylaminovalerylamino)butyl]-3-phenylcyclopropenone] | 
